Source: patent US20250179047A1, “5-[7-(3,4-DIHYDRO-1H-ISOQUINOLINE-2-CARBONYL)-1,2,3,4 TETRAHYDROISOQUINOLIN-6-YL]-1H-PYRROLE-3-CARBOXAMIDE DERIVATIVES, PHARMACEUTICAL COMPOSITIONS CONTAINING THEM AND THEIR USES AS PRO-APOPTOTIC AGENTS” (LES LABORATOIRES SERVIER, priority 2022, published 2025)

How the values were obtained:
[1] = biological target: BCL2 WT (Homo sapiens (Human), UniProt P10415); assay: TR-FRET competitive binding assay, BCL2 WT; conditions: Ki determined from IC50, read-out: TR_FRET EKI_Bcl2 WT
Procedure, shortened: (§1)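 Ki derived from IC50 (11-point dilution, 520/495 nm emission ratio) for displacing a fluorescein-labelled PUMA peptide (2 or 20 nM). Target was 0.5 nM E. coli-expressed Halo-tagged BCL2 (1-207) or BCLXL (2-196), terbium-labelled on Halo. Incubation 2 h at 23°C in pH 7.5 Hepes with 150 mM NaCl and 5% DMSO.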

[2] = biological target: BCL2 G101V (Homo sapiens, UniProt P10415, G101V); assay: TR-FRET competitive binding assay, BCL2 G101V; conditions: BCL2 G101V; Ki determined from IC50; read-out: TR_FRET EKI_Bcl2 G101V
Procedure, shortened: as §1

[3] = tested on: BCL2 G101V; assay: TR-FRET competitive binding assay, BCL2 G101V; parameters: species or system human; conditions: ratio Ki BCL2 G101V / Ki BCL2 WT
Procedure, shortened: as §1

[4] = biological target: BCL2 D103Y (Homo sapiens, UniProt P10415, D103Y); assay: TR-FRET competitive binding assay, BCL2 D103Y; conditions: Ki determined from IC50, read-out: TR_FRET EKI_Bcl2 D103Y
Procedure, shortened: as §1

[5] = biological target: BCLXL WT (Homo sapiens (Human), UniProt Q07817); assay: TR-FRET competitive binding assay, BCLXL WT; conditions: for Ki: BCLXL WT, Ki determined from IC50, read-out: TR_FRET EKI BclxL; for TR_FRET EKI BCLxL/WT selectivty ratio: ratio Ki BCLxL / Ki BCL2 WT
Procedure, shortened: as §1

[6] = tested on: KMS-12-PE Bcl-2 WT; assay: In vitro cytotoxicity CellTiter-Glo 48 h, KMS-12-PE Bcl-2 WT; format: cell-based; conditions: Homo sapiens, KMS-12-PE, C50 = concentration needed to reach 50% of the cellular viability
Procedure, shortened: (§2)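 CTG luminescence read-out; C50 = concentration reaching 50% cellular viability. Cells: KMS-12-PE expressing Bcl-2 WT or G101V (lentiviral, TagRFP-sorted). 11-pt curve, 48 h, 37 °C/5% CO2.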

[7] = tested on: KMS-12-PE Bcl-2 G101V; assay: In vitro cytotoxicity CellTiter-Glo 48 h, KMS-12-PE Bcl-2 G101V; format: cell-based; conditions: for Ratio (G101V/WT): C50 KMS-12-PE Bcl-2 G101V over C50 KMS-12-PE Bcl-2 WT; for IC50: Homo sapiens, KMS-12-PE, 48 h, CellTiter-Glo, C50 = concentration needed to reach 50% of the cellular viability
Procedure, shortened: as §2

Sequence of BCLXL WT (Q07817 other isoform, or with tags, fused parts or gaps): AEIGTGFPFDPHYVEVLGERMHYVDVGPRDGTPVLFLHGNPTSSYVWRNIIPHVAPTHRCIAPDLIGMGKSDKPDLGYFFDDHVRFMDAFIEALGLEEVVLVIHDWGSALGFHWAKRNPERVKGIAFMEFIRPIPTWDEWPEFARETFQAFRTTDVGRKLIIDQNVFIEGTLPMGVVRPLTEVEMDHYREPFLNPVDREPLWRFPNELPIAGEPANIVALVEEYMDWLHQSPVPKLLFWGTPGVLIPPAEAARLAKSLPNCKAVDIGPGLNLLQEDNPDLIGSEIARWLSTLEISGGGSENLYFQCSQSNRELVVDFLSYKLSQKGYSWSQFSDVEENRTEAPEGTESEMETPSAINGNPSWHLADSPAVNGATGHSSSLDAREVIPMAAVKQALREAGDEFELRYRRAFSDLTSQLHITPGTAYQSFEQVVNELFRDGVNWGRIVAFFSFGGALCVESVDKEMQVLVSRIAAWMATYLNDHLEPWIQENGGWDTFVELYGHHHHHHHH

SMILES | Ki [1] [nM] | Ki [2] [nM] | TR_FRET EKI G101V/WT selectivty ratio [3] | Ki [4] [nM] | Ki [5] [nM] | TR_FRET EKI BCLxL/WT selectivty ratio [5] | IC50 [6] [µM] | Ratio (G101V/WT) [7] | IC50 [7] [µM]
COCCn1c(C#N)cc(N(C(=O)c2cc(-c3cc4c(cc3C(=O)N3Cc5ccccc5C[C@H]3C)CN(C(=O)Cc3ccc(OCCN5CCOCC5)cc3)CC4)n(C)c2C)c2ccc(O)cc2)c1C [Example 68, N-[5-cyano-1-(2-methoxyethyl)-2-methyl-pyrrol-3-yl]-N-(4-hydroxyphenyl)-1,2-dimethyl-5-[7-[(3R)-3-methyl-3,4-dihydro-1H-isoquinoline-2-carbonyl]-2-[2-[4-(2-morpholinoethoxy)phenyl]acetyl]-3,4-dihydro-1H-isoquinolin-6-yl]pyrrole-3-carboxamide] | 0.07 | 0.4 | 5.7 | 0.23 | 1.6 | 24.6 | 0.0096 | 5.82 | 0.0556
Cc1c(N(C(=O)c2cc(-c3cc4c(cc3C(=O)N3Cc5ccccc5C[C@H]3C)CN(C(=O)Cc3cc(F)c(OCCN5CCOCC5)cc3F)CC4)n(C)c2C)c2ccc(O)cc2)cc(C#N)n1C [Example 69, N-(5-cyano-1,2-dimethylpyrrol-3-yl)-5-[2-(2-{2,5-difluoro-4-[2-(morpholin-4-yl)ethoxy]phenyl}acetyl)-7-{[(3R)-3-methyl-3,4-dihydro-1H-isoquinolin-2-yl]carbonyl}-3,4-dihydro-1H-isoquinolin-6-yl]-N-(4-hydroxyphenyl)-1,2-dimethylpyrrole-3-carboxamide] | 0.25 | 2 | 7.9 | 0.5 | 4.3 | 17.2 | 0.0047 | 9.23 | 0.043
Cc1c(N(C(=O)c2cc(-c3cc4c(cc3C(=O)N3Cc5ccccc5C[C@H]3C)CN(C(=O)Cc3ccc(OCCN5CCOC6(CCCC6)C5)cc3)CC4)n(C)c2C)c2ccc(O)cc2)cc(C#N)n1C [Example 73, N-(5-cyano-1,2-dimethyl-1H-pyrrol-3-yl)-N-(4-hydroxyphenyl)-1,2-dimethyl-5-{7-[(3R)-3-methyl-1,2,3,4-tetrahydroisoquinoline-2-carbonyl]-2-{2-[4-(2-{6-oxa-9-azaspiro[4.5]decan-9-yl}ethoxy)phenyl]acetyl}-1,2,3,4-tetrahydroisoquinolin-6-yl}-1H-pyrrole-3-carboxamide] | 0.5 | 2.7 | 5.4 | 1.74 | 8.9 | 17.8 | 0.0057 | 5.25 | 0.0298
Cc1c(N(C(=O)c2cc(-c3cc4c(cc3C(=O)N3Cc5ccccc5C[C@H]3CN3CCCCC3)CN(C(=O)Cc3ccc(OCCN5CCC(F)CC5)cc3)CC4)n(C)c2C)c2ccc(O)cc2)cc(C#N)n1C [Example 76, N-(5-cyano-1,2-dimethylpyrrol-3-yl)-5-[2-(2-{4-[2-(4-fluoropiperidin-1-yl)ethoxy]phenyl}acetyl)-7-{[(3S)-3-(piperidin-1-ylmethyl)-3,4-dihydro-1H-isoquinolin-2-yl]carbonyl}-3,4-dihydro-1H-isoquinolin-6-yl]-N-(4-hydroxyphenyl)-1,2-dimethylpyrrole-3-carboxamide] | 0.06 | 0.3 | 5.5 | 0.18 | 1.8 | 32.7 | 0.0165 | 5.28 | 0.0871
Cc1c(N(C(=O)c2cc(-c3cc4c(cc3C(=O)N3Cc5ccccc5C[C@H]3CN3CC[C@@H](F)C3)CN(C(=O)Cc3ccc(OCCC5CCOCC5)cc3)CC4)n(C)c2C)c2ccc(O)cc2)cc(C#N)n1C [Example 79, N-(5-cyano-1,2-dimethylpyrrol-3-yl)-5-(7-{[(3S)-3-{[(3R)-3-fluoropyrrolidin-1-yl]methyl}-3,4-dihydro-1H-isoquinolin-2-yl]carbonyl}-2-(2-{4-[2-(oxan-4-yl)ethoxy]phenyl}acetyl)-3,4-dihydro-1H-isoquinolin-6-yl)-N-(4-hydroxyphenyl)-1,2-dimethylpyrrole-3-carboxamide] | 0.26 | 1.5 | 5.8 | 0.75 | 3.9 | 15.0 | 0.0122 | 4.85 | 0.0592
Cc1c(N(C(=O)c2cc(-c3cc4c(cc3C(=O)N3Cc5ccccc5C[C@H]3CN3CC[C@@H](F)C3)CN(C(=O)Cc3ccc(OCCN5CCOCC5)cc3F)CC4)n(C)c2C)c2ccc(O)cc2)cc(C#N)n1C [Example 80, N-(5-cyano-1,2-dimethylpyrrol-3-yl)-5-[2-(2-{2-fluoro-4-[2-(morpholin-4-yl)ethoxy]phenyl}acetyl)-7-{[(3S)-3-{[(3R)-3-fluoropyrrolidin-1-yl]methyl}-3,4-dihydro-1H-isoquinolin-2-yl]carbonyl}-3,4-dihydro-1H-isoquinolin-6-yl]-N-(4-hydroxyphenyl)-1,2-dimethylpyrrole-3-carboxamide] | 0.06 | 0.3 | 4.9 | 0.14 | 1.2 | 21.1 | 0.0094 | 5.66 | 0.0534
Cc1c(N(C(=O)c2cc(-c3cc4c(cc3C(=O)N3Cc5ccccc5C[C@H]3CN3CCCCC3)CN(C(=O)Cc3ccc(OCCN5CCC(F)(F)C5)cc3)CC4)n(C)c2C)c2ccc(O)cc2)cc(C#N)n1C [Example 82, N-(5-cyano-1,2-dimethylpyrrol-3-yl)-5-[2-(2-{4-[2-(3,3-difluoropyrrolidin-1-yl)ethoxy]phenyl}acetyl)-7-{[(3S)-3-(piperidin-1-ylmethyl)-3,4-dihydro-1H-isoquinolin-2-yl]carbonyl}-3,4-dihydro-1H-isoquinolin-6-yl]-N-(4-hydroxyphenyl)-1,2-dimethylpyrrole-3-carboxamide] | 0.19 | 1.2 | 6.7 | 0.35 | 6.3 | 33.9 | 0.0095 | 6.45 | 0.0572
Cc1c(N(C(=O)c2cc(-c3cc4c(cc3C(=O)N3Cc5ccccc5C[C@H]3CN3CCCCC3)CN(C(=O)Cc3cc(F)c(OCCN5CCOCC5)cc3F)CC4)n(C)c2C)c2ccc(O)cc2)cc(C#N)n1C [Example 83, N-(5-cyano-1,2-dimethylpyrrol-3-yl)-5-[2-(2-{2,5-difluoro-4-[2-(morpholin-4-yl)ethoxy]phenyl}acetyl)-7-{[(3S)-3-(piperidin-1-ylmethyl)-3,4-dihydro-1H-isoquinolin-2-yl]carbonyl}-3,4-dihydro-1H-isoquinolin-6-yl]-N-(4-hydroxyphenyl)-1,2-dimethylpyrrole-3-carboxamide] | 0.09 | 0.9 | 10.9 | 0.21 | 9.3 | 109.4 | 0.0125 | 8.1 | 0.0958
Cc1c(C(=O)N(c2ccc(O)cc2)c2cnn(C)c2)cc(-c2cc3c(cc2C(=O)N2Cc4ccccc4C[C@H]2C)CN(C(=O)Cc2ccc(OCCC4CCOCC4)cc2)CC3)n1C [Example 85, N-(4-hydroxyphenyl)-1,2-dimethyl-5-(7-{[(3R)-3-methyl-3,4-dihydro-1H-isoquinolin-2-yl]carbonyl}-2-(2-{4-[2-(oxan-4-yl)ethoxy]phenyl}acetyl)-3,4-dihydro-1H-isoquinolin-6-yl)-N-(1-methylpyrazol-4-yl)pyrrole-3-carboxamide] | 0.32 | 1.1 | 3.3 | 0.39 | 9.8 | 30.6 | 0.0061 | 8.42 | 0.051
Cc1c(N(C(=O)c2cc(-c3cc4c(cc3C(=O)N3Cc5ccccc5C[C@H]3CN3CCCCC3)CN(C(=O)Cc3ccc(OCCN(C)C5CC5)cc3F)CC4)n(C)c2C)c2ccc(O)cc2)cc(C#N)n1C [Example 88, N-(5-cyano-1,2-dimethylpyrrol-3-yl)-5-{2-[2-(4-{2-[cyclopropyl(methyl)amino]ethoxy}-2-fluorophenyl)acetyl]-7-{[(3S)-3-(piperidin-1-ylmethyl)-3,4-dihydro-1H-isoquinolin-2-yl]carbonyl}-3,4-dihydro-1H-isoquinolin-6-yl}-N-(4-hydroxyphenyl)-1,2-dimethylpyrrole-3-carboxamide] | 0.1 | 0.6 | 5.9 | 0.27 | 1.7 | 17.0 | 0.0063 | 4.67 | 0.0296
